Data published in the supplement of paper PMC10290057.
Where “and” joins values, the source holds several entries; their conditions need not be identical. Identical values can stand only once. Counter-ions that a name gives are not always drawn.

System: HCT116
Assay: efficacy (fitted maximal change in viability relative to DMSO control); higher = less cytotoxic (negative = loss of viability)
Conditions: 48 h
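Also: Luminescence-based viability readout, five doses per compound, normalized against on-plate DMSO and empty-well controls, followed by dose-response curve fitting for every drug.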

Row | SMILES | efficacy
1 | O=C(O)Cc1cccc(OCCCN(Cc2cccc(C(F)(F)F)c2Cl)CC(c2ccccc2)c2ccccc2)c1 [GSK-3965] | -71.2%
2 | CC1=CC=CC=C1N2\C(=N/C3=C(C(=CC=C3)C)C2=O)C[N]4C=NC5=C4N=CN=C5N | -13.6%
3 | CC1=CC2=C(O1)C(=C3OC(=O)\C=C(C)/C3=C2)C [Trioxsalen] | -19.8%
4 | CCCCCCCCCCCC(CC1OC(=O)C1CCCCCC)OC(=O)C(CC(C)C)NC=O (configuration not stated) [Orlistat] | -6.83%
5 | Cc1ncc([N+](=O)[O-])n1CC(C)O (configuration not stated) [Secnidazole] | -13.5%
6 | Cn1c(=O)c2c(ncn2CC(O)CO)n(C)c1=O (configuration not stated) [Dyphylline] | -13%
7 | C[C@]12CCC(=O)C(O)=C1CC[C@@H]1[C@@H]2CC[C@]2(C)C(=O)CC[C@@H]12 [Formestane] | 24.5%
8 | Cc1cc(/C=c2/sc3nc4ccccc4n3c2=O)c(C)n1-c1ccccc1 [ITX3] | -19.9%
9 | Cn1c(CNc2ccc(C(=N)N)cc2)nc2cc(C(=O)N(CCC(=O)O)c3ccccn3)ccc21 [Dabigatran] | -8.84%
10 | C[C@]12Cc3cn[nH]c3C[C@@H]1CC[C@@H]1[C@@H]2CC[C@@]2(C)[C@H]1CC[C@]2(C)O [Stanozolol] | -19.3%
11 | C[C@H]1CC2[C@@H]3CCC/4=C/C(=O)/C=C\[C@]4(C)[C@@]3(F)[C@@H](O)C[C@]2(C)[C@@]1(O)C(=O)CO (some centres not stated) [BETAMETHASONE] | -11.5%
12 | O=C(NCc1ccccc1)[C@H](Cc1ccccc1)NC(=O)[C@H]1O[C@@H]1C(=O)NCCc1ccc(O)cc1 [CAA-0225] | -24.8%
13 | Cn1c(=O)c2c(ncn2CC2OCCO2)n(C)c1=O [Doxofylline] | -7.38%
14 | COc1cc(OC)c(C(=O)CCCN2CCCC2)c(OC)c1 [Buflomedil hydrochloride] | -7.04%
15 | Cc1ccc(C(=O)c2cc(O)c(O)c([N+](=O)[O-])c2)cc1 [Tolcapone] | -83.1%
16 | O=C(O)C[C@H]1CC[C@H](c2ccc(-c3ccc(Nc4ccc(C(F)(F)F)nc4)cn3)cc2)CC1 [Pradigastat] | -15.9%
17 | OC(CCN1CCCCC1)(C2CC\3CC2\C=C3)C4=CC=CC=C4 (configuration not stated) [Biperiden] | -34.7%
18 | COc1cc(SC)ccc1C(=O)N1CCC(Cc2ccccc2)CC1 [JX-401] | -43.4%
19 | C\C1=C(\SSC1=S)C2=CN=CC=N2 [Oltipraz] | -26.5%
20 | CO[C@H]1/C=C/O[C@@]2(C)Oc3c(C)c(O)c4c(O)c(c5c(nc6cc(C)ccn65)c4c3C2=O)NC(=O)/C(C)=C\C=C\[C@H](C)[C@H](O)[C@@H](C)[C@@H](O)[C@@H](C)[C@H](OC(C)=O)[C@@H]1C [Rifaximin] | -88.6%
21 | CC(C)c1c2cc(-c3ccnc(N[C@H]4CC[C@H](NC5CCOCC5)CC4)n3)ccc2nn1C | -72.3%
22 | CC(C)(C)[S+](=O)([O-])c1ccc2nccc(Nc3n[nH]c4ccc(F)cc34)c2c1 [GSK-583] | -39.1%
23 | NC(=O)[C@@H](CC1CC1)[C@@H](CCC(F)(F)F)C(=O)N[C@H]2\N=C(C3=CC=CC=C3)/C4=CC=CC(=C4NC2=O)F | -12.2%
24 | COC(=O)N(CC(=O)O)Cc1cccc(OCc2nc(-c3ccc(Cl)cc3)oc2C)c1 | -8.59%

Row | SMILES | efficacy
25 | C[C@@H]1CCN(C(=O)N2CCCC2)C[C@@H]1N(C)c1ncnc2[nH]ccc12 | -8.82%
26 | Cc1nnc(N[S+](=O)([O-])c2ccc(N)cc2)s1 [Sulfamethizole] | -10.7%
27 | CCN([C@H]1CC[C@@H](CC1)N(C)CCOC)C2=C(C)C(=CC(=C2)C#CCN3CCOCC3)C(=O)NC\C4=C(C)\C=C(\C)NC4=O | -10.4%
28 | CCCOc1ccn2c(C(C)=O)cc(-c3ccccc3[S+](C)(=O)[O-])c2c1 [GSK-2801] | -30.1%
29 | CN1C(=O)/C=C(/NCCN(CCO)CCCC2=CC=C(C=C2)[N+]([O-])=O)N(C)C1=O [Nifekalant] | -10%
30 | CC1(C)NC(=O)N(c2ccc([N+](=O)[O-])c(C(F)(F)F)c2)C1=O [Nilutamide] | -35.5%
31 | Cc1c(Cl)cccc1[S+](=O)([O-])Nc1nc(CCN2CCOCC2=O)cs1 [BVT-3498] | -14.1%
32 | O=C(CCc1ccc(O)cc1)c1c(O)cc(O)cc1O [Phloretin] | 6.68%
33 | CCn1c(=O)c2c(nc(/C=C/c3ccc(OC)c(OC)c3)n2C)n(CC)c1=O [Istradefylline] | -9.26%
34 | CNCC(O)c1ccc(O)cc1 (configuration not stated) [Synephrine] | -16.7%
35 | NC(=O)c1cnc(-c2ccc(C3(N)CCC3)cc2)c(-c2ccccc2)c1 [AZD-26] | -66.9%
36 | COC1CCN(CC1)C(=O)C2=CC(=CC=C2F)CC/3=N/NC(=O)C4=CC=CC=C34 [AZD-2461] | -29.2%
37 | COC(c1ccccc1)(c1ccccc1)[C@H](Oc1nc(C)cc(C)n1)C(=O)O [Ambrisentan] | -8.06%
38 | C=C[C@H]1CN2CC[C@H]1C[C@H]2[C@H](O)c1ccnc2ccc(OC)cc12 | -34.1%
39 | C[C@H]1CN(C[C@@H](C)N1)C2=C(F)C3=C(C(=C2F)N)C(=O)\C(=C/N3C4CC4)C(O)=O [Sparfloxacin] | -10.7%
40 | CC(C)[C@H](CO)Nc1nc(Nc2ccc(C(=O)O)c(Cl)c2)c2ncn(C(C)C)c2n1 [Purvalanol B] | -11.6%
41 | COc1ccc([C@@H]2CC(=O)c3c(O)cc(O[C@@H]4O[C@H](CO[C@@H]5O[C@@H](C)[C@H](O)[C@@H](O)[C@H]5O)[C@@H](O)[C@H](O)[C@H]4O)cc3O2)cc1O [Aurantiamarin (Methyl Hesperidin)] | -15%
42 | CC(=O)Nc1ccc(C(=O)NC(C)(C)C)cc1 [CPI-1189] | -10.3%
43 | O=C(COCC(=O)N1CCN(C(c2ccccc2)c2ccccc2)CC1)Nc1ccc(Cl)cc1C(=O)O [TM-5275] | 6.23%
44 | C[S+]([O-])(=O)NC1=CC2=C(C=C1OC3=CC=CC=C3)C(=O)\C(=C/O2)NC=O [Iguratimod] | -14.8%
45 | C[C@@H]1CN(Cc2ccc(F)cc2)[C@@H](C)CN1C(=O)c1cc2c(C(=O)C(=O)N(C)C)cn(C)c2cc1Cl [Talmapimod] | -32.8%
46 | CC(C)[C@H]1C(=O)N[C@@H](CCCN=C(N)N)C(=O)NCC(=O)N[C@@H](CC(=O)O)C(=O)N[C@H](Cc2ccccc2)C(=O)N1C [Cilengitide] | -11%
47 | COC1=CC=C(C=C1)C(=O)C2CCN(CC2)CC(=O)N(CC3CC3)C\C4=N\C5=C(\COCC5)C(=O)N4 [TNKS-656] | -13.6%
48 | COC12C(COC(N)=O)\C3=C(/N1CC4C2N4C)C(=O)C(=C(N)/C3=O)\C (configuration not stated) [Porfiromycin] | -81%

Row | SMILES | efficacy
49 | C[C@H]1CN(CCN1C2=CN=C(NC/3=C/C(=C\N(C)C3=O)C4=CC=NC(=C4CO)N5CC[N]6C7=C(CC(C)(C)C7)C=C6C5=O)C=C2)C8COC8 [RG-7845 (GDC-0853)] | -34.1%
50 | O=C1NC(O)CCN1[C@@H]1O[C@H](CO)[C@@H](O)[C@H]1O (some centres not stated) [Tetrahydrouridine] | -11.8%
51 | NC\1=N\C(=O)N(\C=C1)[C@@H]2O[C@H](CO)[C@@H](O)[C@H]2O [Cytidine] | -11.1%
52 | COc1ccc2cc(OCC3(C(=O)O)CN(C(=O)c4ccc(F)cc4)C3)ccc2c1 | -11.6%
53 | CCO[C@@H]1OC(=O)C[C@@H]1NC(=O)[C@@H]1CCCN1C(=O)[C@@H](NC(=O)c1ccc(N)c(Cl)c1)C(C)(C)C [VX-765] | 23.5%
54 | CN(C)CC(C)(C)CNc1nn2c(-c3ccccc3)nnc2cc1C1CCC1 [Akt-I-1] | -8.48%
55 | CCCCn1c(=O)n(Cc2ccccc2F)c(=O)c2nc(Cc3ccc(NC(C)=O)cc3)[nH]c21 [cPEPCK Inhibitor] | -8.36%
56 | C=CC(=O)N1CCC[C@H](n2c(=O)n(-c3ccc(Oc4ccccc4)cc3)c3c(N)ncnc32)C1 [ONO-4059 analog] | -67.4%
57 | CCC(c1ccc(O)cc1)C(CC)c1ccc(O)cc1 (configuration not stated) [Hexestrol] | -61.8%
58 | Cc1cccc(C)c1NC(=O)CN1CCCC1=O [Nefiracetam] | -20.6%
59 | CO[C@H]1C[C@@H]2CC[C@@H](C)[C@@](O)(O2)C(=O)C(=O)N2CCCC[C@H]2C(=O)O[C@H]([C@@H](C)C[C@@H]2CC[C@@H](O)[C@H](OC)C2)CC(=O)[C@H](C)/C=C(\C)[C@@H](O)[C@@H](OC)C(=O)[C@H](C)C[C@H](C)/C=C/C=C/C=C/1C [Sirolimus] | -50.3%
60 | CO[C@H]1C[C@@H]2CC[C@@H](C)[C@@](O)(O2)C(=O)C(=O)N2CCCC[C@H]2C(=O)O[C@H]([C@H](C)C[C@@H]2CC[C@@H](OCCO)[C@H](OC)C2)CC(=O)[C@H](C)/C=C(/C)[C@@H](O)[C@@H](OC)C(=O)[C@H](C)C[C@H](C)\C=C/C=C\C=C/1C [Everolimus] | -57.4%
61 | COC(=O)N(C)c1c(N)nc(-c2nn(Cc3ccccc3F)c3ncccc23)nc1N [Riociguat] | -5.69%
62 | N#Cc1ccc(C2CCCc3cncn32)cc1 (configuration not stated) [Fadrozole] | -10.8%
63 | CN(CCOc1ccc(-c2ccc3c(c2)OCO3)cc1C(C)(C)C)CC(=O)O | -58.3%
64 | C#Cc1cccc(Nc2ncnc3cc4c(cc23)OCCOCCOCCO4)c1 [Icotinib hydrochloride] | -36%
65 | Nc1ncnc2c1nc(Cl)n2[C@@H]1O[C@H](CO)[C@@H](O)[C@H]1O [8-Cl-Ado] | -73.3%
66 | COC1=C(F)C(=CC=C1)C/2=C(C)/N(CC3=C(F)C=CC=C3C(F)(F)F)C(=O)N(C[C@H](NCCCC(O)=O)C4=CC=CC=C4)C2=O [Elagolix] | -32.8% and -32.2%
67 | CCC(=O)O[C@@]1(CC[C@H]2[C@@H]3CCC/4=C/C(=O)CC[C@]4(C)[C@H]3CC[C@]12C)C(=O)CO [17 alpha-propionate] | -15.6%
68 | N[C@@H](CCC(=O)O)C(=O)N[C@@H](Cc1c[nH]c2ccccc12)C(=O)O [Oglufanide] | -13.7%
69 | CNC[C@H](O)c1ccc(O)c(O)c1 [Epinephrine] | -17.8%
70 | O=C([O-])Cc1ccccc1Nc1c(Cl)cccc1Cl [Diclofenac sodium] | -6.7%
71 | N[C@@H](Cc1c[nH]c2ccc(O)cc12)C(=O)O [5-Hydroxytryptophan] | -7.82%
72 | O=C1CCC[C@@H]2[C@H]3CCC[N+]4([O-])CCC[C@@H](CN12)[C@@H]34 (some centres not stated) [Oxymatrine] | -29.8%
